# Source: ChEMBL document CHEMBL1201862, “PubChem BioAssay data set” (2004)
#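 Method: 48-hour compound exposure of cells in 96-well plates, five concentrations, linear interpolation of endpoints. Abbreviation: GI50, concentration required for 50% inhibition of growth.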 The source made the active and inactive calls. Rule as the data show it: active = GI50 up to about 1.1 µM and inactive = higher.
# Legend:
# Assay in all cases: growth of human tumour cells (NCI), 48 h
# BT-549 = system: BT-549
# CCRF-CEM = system: CCRF-CEM
# DU-145 = system: DU-145
# EKVX = system: EKVX
# HCT-116 = system: HCT-116
# HL-60 = system: HL-60
# Hs-578T = system: Hs-578T
# K562 = system: K562
# KM12 = system: KM12
# LOX IMVI = system: LOX IMVI
# MDA-MB-435 = system: MDA-MB-435
# NCI-H522 = system: NCI-H522
# OVCAR-3 = system: OVCAR-3
# OVCAR-5 = system: OVCAR-5
# RPMI-8226 = system: RPMI-8226
# SK-OV-3 = system: SK-OV-3
# SN12C = system: SN12C
# SR = system: SR
# RXF 393 = system: RXF 393
# HOP-92 = system: HOP-92
Structure (SMILES),GI50 (BT-549),GI50 (CCRF-CEM),GI50 (DU-145),GI50 (EKVX),GI50 (HCT-116),GI50 (HL-60),GI50 (Hs-578T),GI50 (K562),GI50 (KM12),GI50 (LOX IMVI),GI50 (MDA-MB-435),GI50 (NCI-H522),GI50 (OVCAR-3),GI50 (OVCAR-5),GI50 (RPMI-8226),GI50 (SK-OV-3),GI50 (SN12C),GI50 (SR),GI50 (RXF 393),GI50 (HOP-92)
Nc1c(C(=O)O)nnc2ccc(Cl)cc12,> 100 µM (inactive),> 100 µM (inactive),> 100 µM (inactive),> 100 µM (inactive),> 100 µM (inactive),> 100 µM (inactive),> 100 µM (inactive),> 100 µM (inactive),> 100 µM (inactive),> 100 µM (inactive),> 100 µM (inactive),> 100 µM (inactive),> 100 µM (inactive),> 100 µM (inactive),> 100 µM (inactive),> 100 µM (inactive),> 100 µM (inactive),> 100 µM (inactive),–,–
CCOC(=O)c1c(-c2ccccc2)nc2c(OC)nccn12,> 100 µM (inactive),> 100 µM (inactive),> 100 µM (inactive),> 100 µM (inactive),> 100 µM (inactive),> 100 µM (inactive),> 100 µM (inactive),> 100 µM (inactive),> 100 µM (inactive),> 100 µM (inactive),> 100 µM (inactive),> 100 µM (inactive),> 100 µM (inactive),–,> 100 µM (inactive),> 100 µM (inactive),> 100 µM (inactive),> 100 µM (inactive),15.4 µM (inactive),–
CCOC(=O)c1[nH]cc(C)c1-c1ccc2c(-c3ccccc3)nc3ccccc3n12,5.13 µM (inactive),2.68 µM (inactive),3.8 µM (inactive),3.82 µM (inactive),3.19 µM (inactive),–,2 µM (inactive),3.34 µM (inactive),3.45 µM (inactive),3.44 µM (inactive),2.23 µM (inactive),1.53 µM (inactive),4.13 µM (inactive),15.8 µM (inactive),–,4.4 µM (inactive),3.37 µM (inactive),1.62 µM (inactive),2.03 µM (inactive),3.52 µM (inactive)
COC(=O)Cc1c([C@@H]2Nc3ccccc3[C@H]2CC(=O)OC)[nH]c2ccccc12,18.5 µM (inactive),20.7 µM (inactive),59.4 µM (inactive),43 µM (inactive),38.9 µM (inactive),–,41.3 µM (inactive),11 µM (inactive),–,21.6 µM (inactive),26.1 µM (inactive),–,18.3 µM (inactive),27.8 µM (inactive),14.9 µM (inactive),52.4 µM (inactive),30.3 µM (inactive),8.02 µM (inactive),25.7 µM (inactive),45.8 µM (inactive)
Cc1ccc(O)c(C2=CC3=NNC(=O)C3C(c3cccc(Br)c3)C2)c1 (configuration not stated),23.1 µM (inactive),25.1 µM (inactive),29.2 µM (inactive),25.9 µM (inactive),21 µM (inactive),25.4 µM (inactive),27.1 µM (inactive),25.8 µM (inactive),14.9 µM (inactive),14 µM (inactive),23.9 µM (inactive),–,22.3 µM (inactive),21.8 µM (inactive),22.1 µM (inactive),14.6 µM (inactive),19.9 µM (inactive),21.2 µM (inactive),14.2 µM (inactive),16.6 µM (inactive)
O=C(/C=C/c1ccc(O)c(O)c1)OCCCOC(=O)/C=C/c1ccc(O)c(O)c1,25.3 µM (inactive),2.63 µM (inactive),34.8 µM (inactive),33.4 µM (inactive),18.2 µM (inactive),–,49.5 µM (inactive),22.3 µM (inactive),33.3 µM (inactive),12.4 µM (inactive),30.2 µM (inactive),11.6 µM (inactive),10.8 µM (inactive),27.4 µM (inactive),17.4 µM (inactive),27.2 µM (inactive),28.1 µM (inactive),17.2 µM (inactive),26.8 µM (inactive),20 µM (inactive)
CC(=O)OCC1OC(OCCCOP(=S)(OCCC#N)OCC2OC(n3ccc(N)nc3=O)C(OC(=O)c3ccccc3)C2OC(=O)c2ccccc2)C(OC(C)=O)C(OC(C)=O)C1OC(C)=O (configuration not stated),> 100 µM (inactive),> 100 µM (inactive),> 100 µM (inactive),> 100 µM (inactive),> 100 µM (inactive),–,> 100 µM (inactive),> 100 µM (inactive),> 100 µM (inactive),> 100 µM (inactive),> 100 µM (inactive),> 100 µM (inactive),> 100 µM (inactive),> 100 µM (inactive),> 100 µM (inactive),> 100 µM (inactive),> 100 µM (inactive),> 100 µM (inactive),> 100 µM (inactive),> 100 µM (inactive)
Cc1ncc([N+](=O)[O-])n1CCN(C)C(=O)CCCn1ccnc1[N+](=O)[O-],> 100 µM (inactive),> 100 µM (inactive),> 100 µM (inactive),> 100 µM (inactive),> 100 µM (inactive),> 100 µM (inactive),> 100 µM (inactive),> 100 µM (inactive),> 100 µM (inactive),> 100 µM (inactive),> 100 µM (inactive),> 100 µM (inactive),> 100 µM (inactive),> 100 µM (inactive),> 100 µM (inactive),> 100 µM (inactive),> 100 µM (inactive),> 100 µM (inactive),> 100 µM (inactive),–
OC1CC(O)c2c(Cl)sc(Cl)c21 (configuration not stated),34.6 µM (inactive),46.1 µM (inactive),43.4 µM (inactive),5.21 µM (inactive),31.4 µM (inactive),30.5 µM (inactive),36 µM (inactive),62.8 µM (inactive),27 µM (inactive),52.6 µM (inactive),32 µM (inactive),23 µM (inactive),14.8 µM (inactive),28.8 µM (inactive),–,27.4 µM (inactive),46.3 µM (inactive),> 100 µM (inactive),< 0.01 µM (active),23.4 µM (inactive)
CCOC(=O)c1c(O)nc(O)c(CC)c1C,> 100 µM (inactive),> 100 µM (inactive),> 100 µM (inactive),> 100 µM (inactive),> 100 µM (inactive),> 100 µM (inactive),> 100 µM (inactive),> 100 µM (inactive),> 100 µM (inactive),> 100 µM (inactive),> 100 µM (inactive),> 100 µM (inactive),> 100 µM (inactive),> 100 µM (inactive),> 100 µM (inactive),> 100 µM (inactive),> 100 µM (inactive),–,> 100 µM (inactive),> 100 µM (inactive)
c1ccc(B2OCC(C3OB(c4ccccc4)OC4COB(c5ccccc5)OC43)O2)cc1 (configuration not stated),> 100 µM (inactive),> 100 µM (inactive),> 100 µM (inactive),> 100 µM (inactive),> 100 µM (inactive),–,> 100 µM (inactive),> 100 µM (inactive),> 100 µM (inactive),> 100 µM (inactive),> 100 µM (inactive),24.5 µM (inactive),> 100 µM (inactive),> 100 µM (inactive),> 100 µM (inactive),> 100 µM (inactive),> 100 µM (inactive),> 100 µM (inactive),> 100 µM (inactive),> 100 µM (inactive)
CCOC(=O)c1ccc2nc3n(c2c1)C(c1c(F)cccc1F)SC3 (configuration not stated),> 100 µM (inactive),> 100 µM (inactive),> 100 µM (inactive),29.9 µM (inactive),50.4 µM (inactive),> 100 µM (inactive),> 100 µM (inactive),> 100 µM (inactive),81.8 µM (inactive),> 100 µM (inactive),> 100 µM (inactive),–,67.1 µM (inactive),> 100 µM (inactive),> 100 µM (inactive),> 100 µM (inactive),> 100 µM (inactive),49.3 µM (inactive),24.9 µM (inactive),> 100 µM (inactive)
Cc1ccc(C2SCC(=O)N2c2ccc(-c3ccc(-n4c(-c5ccccc5)nc5ccccc5c4=O)cc3)cc2)cc1 (configuration not stated),60.7 µM (inactive),34.9 µM (inactive),> 100 µM (inactive),53.3 µM (inactive),–,31 µM (inactive),55.5 µM (inactive),64.7 µM (inactive),55.8 µM (inactive),54.1 µM (inactive),88.3 µM (inactive),37.2 µM (inactive),> 100 µM (inactive),> 100 µM (inactive),> 100 µM (inactive),> 100 µM (inactive),86.5 µM (inactive),36.4 µM (inactive),–,35 µM (inactive)
CCCCCCOC(=O)C(N)Cc1ccc(OC)cc1 (configuration not stated),> 100 µM (inactive),26.6 µM (inactive),> 100 µM (inactive),> 100 µM (inactive),> 100 µM (inactive),> 100 µM (inactive),> 100 µM (inactive),> 100 µM (inactive),> 100 µM (inactive),> 100 µM (inactive),> 100 µM (inactive),> 100 µM (inactive),> 100 µM (inactive),> 100 µM (inactive),–,> 100 µM (inactive),> 100 µM (inactive),> 100 µM (inactive),> 100 µM (inactive),5.55 µM (inactive)
Clc1sc(Cl)c2c1[C@@H](Cl)C[C@@H]2Cl,> 100 µM (inactive),23.7 µM (inactive),> 100 µM (inactive),62.5 µM (inactive),53.5 µM (inactive),–,38.1 µM (inactive),48.5 µM (inactive),> 100 µM (inactive),49.4 µM (inactive),92 µM (inactive),18.9 µM (inactive),> 100 µM (inactive),> 100 µM (inactive),–,> 100 µM (inactive),> 100 µM (inactive),33.6 µM (inactive),–,37.4 µM (inactive)
